Assay results: publication PMC11984586, “A novel spider toxin as a selective antagonist of the Kv1 subfamily of voltage-gated potassium channels through gating modulation” (The Journal of Biological Chemistry, 2025)
Bridge positions count the residues as written; N and C are the ends. Peptide text beside a SMILES is read from it.

Columns and labels:
[1] = tested on: Kv1.3/1.7 S3-S4 chimeric channel; experiment: Whole-cell patch clamp, chimeric channel; assay type: cell-based, human; conditions: current at 495 ms, +30 mV, IC50 could not be fitted, mean ± SD, n = 5-6
From the text: To investigate the structural determinants underlying the differential regulatory effects of MrVIII on Kv1 channels, we employed a chimeric channel strategy. Using Kv1.3 as the template, the S1-S2, S3-S4, and S5-S6 transmembrane helices and their respective linkers from Kv1.1 were inserted to generate chimeras, generating the Kv1.3/1.1 S1-S2, Kv1.3/1.1 S3-S4, and Kv1.3/1.1 S5-S6 chimeric channels. […] These findings indicate that the S3-S4 is the key determinant for the differential inhibition of Kv1.1 and Kv1.3 by MrVIII. To further validate this conclusion, we constructed a reverse chimeric channel using Kv1.1 as the template, inserting the corresponding regions from Kv1.3 into Kv1.1. […] This finding more directly illustrates the exchange of the channel's voltage-dependence phenotype in toxin inhibition by swapping this S3-S4 between Kv1.1 and Kv1.3. […] In addition to confirming the differential role of S3-S4 between Kv1.1 and Kv1.3, we also substituted the S3-S4 of Kv1.4 and Kv1.7 into Kv1.3 to analyze MrVIII's inhibition profile. […] The IC50 for Kv1.3/1.7 S3-S4 could not be fitted, and inhi%(495 ms) was only 23.1 ± 10.0% (Fig. S2, E and F).
The cDNA of hKv1.1, hKv1.2, hKv1.3, rKv1.4, hKv1.5, mKv1.6, and hKv1.7 were subcloned into mammalian expression vectors pcDNA3.1 or pCMV-blank vectors, as well as other plasmids described previously ([35]). Channel mutants were generated by site-directed mutations. Briefly, the parental channel plasmid was amplified using a pair of oppositely directed primers harboring the designed mutation site, with KOD Fx (TOYOBO Co, Ltd). The resulting PCR mix was treated with FastDigest DpnI (Thermo Fisher Scientific) to remove the methylated template. Ten microliters of the digested product was then used to transform 100 μl E. coli DH5α competent cells. Transformants were randomly picked and sequenced to confirm the presence of the intended mutation.
CHO-K1 cells were selected for expressing Kv channels due to their lack of endogenous Kv channels, while HEK293 or ND7/23 cells were used for Nav and Cav channel expression. CHO-K1 cells were cultured in a Dulbecco's modified Eagle's medium/Ham's F-12 nutrient mixture (DMEM-F12) medium, and HEK293T and ND7/23 cells in DMEM medium, all supplemented with 10% fetal bovine serum and 1% penicillin-streptomycin (all from Gibco, Thermo Fisher Scientific, Inc) under standard conditions (37 °C, 5% CO2, and saturated humidity). These cell lines were purchased from Stem Cell Bank, Chinese Academy of Sciences. Channel plasmids were cotransfected with pEGFP-N1 (encoding GFP) into the respective cells using lipofectamine 2000, following the manufacturer's instructions (Invitrogen, Thermo Fisher Scientific, Inc.). Nav1.9-GFP plasmid was transfected into ND7/23 using the X-tremeGENE HP DNA Transfection Reagent (Roche). After 4 to 6 h transfection, cells were seeded onto poly-lysine–coated coverslips, and 24 to 36 h later, transfected cells were ready for patch-clamp analysis.
Patch clamp experiments were conducted using an electrophysiology platform comprising a MultiClamp 700B amplifier and an Axon Digidata 1550 AD/DA convertor (Axon Instruments). Data acquisition was performed with pClamp 10.5 software (Axon Instruments). All experiments were performed at room temperature.
(§1) For Kv current recordings, the bath solution contained (in mM) the following: 140 NaCl, 5 KCl, 1 MgCl2, 2 CaCl2, 10 glucose, and 10 Hepes (pH 7.3, adjusted with NaOH), and the pipette solution contained (in mM) the following: 140 KCl, 2.5 MgCl2, 11 EGTA, and 10 Hepes (pH 7.3, adjusted with KOH). Series resistance was maintained below 10 MΩ and compensated to 80%. Concentration–response curves were fitted by the Hill equation to determine the toxin's potency. Whole cell conductance (G) at each depolarizing voltage (V) was determined using the equation: G = I/(V−Vrev), where I is the current amplitude, and Vrev is the reversal potential. […]

[2] = target: T1, Kv1.3/ET (Kv1.3/Q355 E_M358T) (Homo sapiens, UniProt P22001, M358T/Q355E); experiment: Whole-cell patch clamp, Kv1.3 double mutant; assay type: cell-based; conditions: +30 mV, mean ± SD, n = 3–5
T1 construct: expressed in transfected cells; host or cells: CHO-K1
T1 sequence (P22001 whole entry Q355E/M358T): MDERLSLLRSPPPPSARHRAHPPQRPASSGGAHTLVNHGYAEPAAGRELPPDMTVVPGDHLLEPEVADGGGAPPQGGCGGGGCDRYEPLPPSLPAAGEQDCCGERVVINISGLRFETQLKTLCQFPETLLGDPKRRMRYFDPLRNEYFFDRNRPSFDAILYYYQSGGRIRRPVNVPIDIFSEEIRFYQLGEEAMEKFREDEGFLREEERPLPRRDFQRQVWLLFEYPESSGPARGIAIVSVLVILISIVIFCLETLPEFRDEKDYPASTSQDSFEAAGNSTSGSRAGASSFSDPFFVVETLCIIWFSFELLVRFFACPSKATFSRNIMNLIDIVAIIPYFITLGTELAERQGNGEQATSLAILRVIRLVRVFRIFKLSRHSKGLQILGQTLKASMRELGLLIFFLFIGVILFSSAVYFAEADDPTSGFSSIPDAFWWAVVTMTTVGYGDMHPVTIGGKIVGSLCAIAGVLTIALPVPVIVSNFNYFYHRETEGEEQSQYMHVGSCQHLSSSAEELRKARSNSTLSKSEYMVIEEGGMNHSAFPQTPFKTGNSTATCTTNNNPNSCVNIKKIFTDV
From the text: In contrast, differences at positions 347, 355, and 358 between Kv1.3 and Kv1.1 prompted further analysis. To explore whether these discrepancies influence peptide-mediated inhibition, we substituted these residues in Kv1.3 with their homologous counterparts in Kv1.1 and assessed the MrVIII's inhibitory efficacy on these single-point mutants. […] To further investigate this, we introduced double adjacent mutations around Q355 and M358 in Kv1.3 to explore potential synergistic effects on MrVIII's inhibitory activity. […]
CHO-K1 cells were selected for expressing Kv channels due to their lack of endogenous Kv channels, while HEK293 or ND7/23 cells were used for Nav and Cav channel expression. […] After 4 to 6 h transfection, cells were seeded onto poly-lysine–coated coverslips, and 24 to 36 h later, transfected cells were ready for patch-clamp analysis. […]
as §1, with “Series resistance was maintained below 10 MΩ and compensated to 80%. Concentration–response curves were fitted by the Hill equation to determine the toxin's potency.” left out

Q: With `CC[C@H](C)[C@@H]1NC(=O)[C@H](Cc2ccc(O)cc2)NC(=O)[C@H](CCC(N)=O)NC(=O)[C@@H]2CCCN2C(=O)[C@@H]2CSSC[C@H](NC(=O)[C@H](C)NC(=O)[C@H](CO)NC(=O)[C@H](CCC(=O)O)NC(=O)[C@H](CCC(=O)O)NC(=O)[C@@H](N)[C@@H](C)O)C(=O)NCC(=O)NCC(=O)N[C@@H](Cc3ccccc3)C(=O)N[C@@H](CC(N)=O)C(=O)N[C@@H](C)C(=O)N[C@@H](CCCNC(=N)N)C(=O)N[C@H]3CSSC[C@H](NC1=O)C(=O)N[C@@H](CCCCN)C(=O)NCC(=O)N[C@@H](Cc1c[nH]c4ccccc14)C(=O)N[C@@H](CCCNC(=N)N)C(=O)N[C@@H]([C@@H](C)O)C(=O)N[C@@H](CCCCN)C(=O)N[C@@H](CCCNC(=N)N)C(=O)N[C@H](C(=O)N[C@@H](CC(C)C)C(=O)N[C@@H](CC(N)=O)C(=O)N1CCC[C@H]1C(=O)O)CSSC[C@H](NC(=O)[C@H](CCCCN)NC(=O)[C@H](Cc1c[nH]cn1)NC(=O)[C@H](CC(C)C)NC(=O)[C@@H]1CCCN1C3=O)C(=O)N2` [MrVIII] (H-TEESACGGFNARCPLHKCCPQYICKGWRTKRCLNP-OH; disulfide 6-19, 13-24, 18-32; N-terminus and C-terminus assumed) as the compound, how does the “inhi%(495 ms), Kv1.3/1.7 S3-S4 current” value [1] read?
A: 23.1 ± 10.0%

Q: And the IC50 ([2]; current at 50 ms)?
A: 122 ± 24.5 nM

Q: And the “inhi%(495 ms), Kv1.3/ET current” value ([2]; current at 495 ms)?
A: −35.4 ± 20.7%
